Measured values as given in ChEMBL document CHEMBL1142239, “Optimization of novel acyl pyrrolidine inhibitors of hepatitis C virus RNA-dependent RNA polymerase leading to a development candidate” (J Med Chem, 2007).
The source made the active and inactive calls. The calls are words filed in the database; no cut-off is given here.

Key:
Hepatitis C virus [1] = assay: Inhibition of HCV 1b RB01 NS5B by SPA; parameters: species or system Hepatitis C virus subtype 1b
Hepatitis C virus [2] = assay: Antiviral activity against HCV replicon containing HCV 1b genome transfected in Huh7 cells after 72 hrs by ELISA; format: functional, organism-based, Hepacivirus hominis; details: genotype 1b, Huh-7, 72 h
[3] = Cytotoxicity against Vero cells after 4 days; format: cell-based; details: chlorocebus sabaeus, read-out: CCID50
Hepatitis C virus [4] = assay: Inhibition of HCV 1b RB01 NS5B by filtermat assay; parameters: species or system Hepatitis C virus subtype 1b
[5] = Bioavailability in Sprague-Dawley rat at 2 mg/kg, po and 1 mg/kg, iv; format: ADME, organism-based; details: in vivo
[6] = Plasma clearance in Sprague-Dawley rat at 1 mg/kg, iv; format: ADME, organism-based; parameters: dose 1 mg/kg, route intravenous
Hepatitis C virus [7] = assay: Antiviral activity against HCV replicon containing HCV 1b genome transfected in Huh7 cells in presence of interferon alpha 2a; format: functional, organism-based; details: Hepacivirus hominis; genotype 1b; Huh-7
[8] = Lipophilicity, log D of the compound; format: physicochemical; details: octanol/water

SMILES	IC50 (Hepatitis C virus [1])	EC50 (Hepatitis C virus [2])	IC50 (Hepatitis C virus [4])	bioavailability [5]	clearance [6]	logD [8]	CC50 at 96 h [3]	Activity (Hepatitis C virus [7])
CCOC[C@@H]1C[C@@](CC(C)C)(C(=O)O)N(C(=O)c2ccc(C(C)(C)C)c(OC)c2)[C@H]1c1nccs1 (racemic)	3200 nM	12800 nM	–	–	–	–	214000 nM	–
CC(C)C[C@@]1(C(=O)O)C[C@H](C(N)=O)[C@H](c2nccs2)N1C(=O)c1ccc(C(C)(C)C)c(Cl)c1	–	1200 nM	20 nM	5%	29 mL/min/kg	–	> 500000 nM	–
COc1cc(C(=O)N2[C@@H](c3nccs3)[C@@H](C(N)=O)C[C@@]2(CC(C)C)C(=O)O)ccc1C(C)(C)C	–	610 nM	5 nM	0.6%	37 mL/min/kg	–	> 500000 nM	–
COC[C@H]1C[C@@](CC(C)C)(C(=O)O)N(C(=O)c2ccc(C(C)(C)C)c(OC)c2)[C@H]1c1nccs1	440 nM	390 nM	–	59%	5 mL/min/kg	2.2	240000 nM	Active
CCOC[C@H]1C[C@@](CC(C)C)(C(=O)O)N(C(=O)c2ccc(C(C)(C)C)c(OC)c2)[C@H]1c1nccs1	430 nM	470 nM	–	120%	5 mL/min/kg	2.7	142000 nM	–
CC(C)C[C@@]1(C(=O)O)C[C@H](C(N)=O)[C@H](c2nccs2)N1C(=O)c1ccc(C(C)(C)C)cc1	–	> 20000 nM	970 nM	2%	21 mL/min/kg	–	430000 nM	–
COc1cc(C(=O)N2[C@@H](c3nccs3)[C@@H](CO)C[C@@]2(CC(C)C)C(=O)O)ccc1C(C)(C)C (racemic)	730 nM	210 nM	–	12%	36 mL/min/kg	–	358000 nM	–
CC(C)C[C@@]1(C(=O)O)C[C@H](C(=O)O)[C@H](c2cccs2)N1C(=O)c1ccc(C(C)(C)C)cc1 (racemic)	–	> 20000 nM	1100 nM	–	–	–	> 500000 nM	–

The next lines start with results.

IC50 (Hepatitis C virus [1])	EC50 (Hepatitis C virus [2])	IC50 (Hepatitis C virus [4])	bioavailability [5]	clearance [6]	logD [8]	SMILES	CC50 at 96 h [3]	Activity (Hepatitis C virus [7])
–	570 nM	14 nM	2%	24 mL/min/kg	–	CC(C)C[C@@]1(C(=O)O)C[C@H](C(N)=O)[C@H](c2nccs2)N1C(=O)c1ccc(C(C)(C)C)c(Br)c1	> 500000 nM	–
–	> 20000 nM	20000 nM	–	–	–	CC(C)C[C@@]1(C(=O)O)C[C@H](C(=O)O)[C@H](c2cccs2)N1C(=O)c1ccc(C(F)(F)F)cc1 (racemic)	> 500000 nM	–
2300 nM	5700 nM	–	44%	12 mL/min/kg	–	COC[C@@H]1C[C@@](CC(C)C)(C(=O)O)N(C(=O)c2ccc(C(C)(C)C)c(OC)c2)[C@H]1c1nccs1	265000 nM	–
–	> 20000 nM	3800 nM	–	–	–	CC(C)C[C@@]1(C(=O)O)C[C@H](C(=O)O)[C@H](c2nccs2)N1C(=O)c1ccc(C(C)(C)C)cc1 (racemic)	> 500000 nM	–
1000 nM	1300 nM	–	11%	39 mL/min/kg	–	COc1cc(C(=O)N2[C@@H](c3nccs3)[C@H](CO)C[C@@]2(CC(C)C)C(=O)O)ccc1C(C)(C)C (racemic)	482000 nM	–
